Assay: Pharmacokinetics of dexlansoprazole injection after single intravenous infusion in healthy Chinese subjects
Format: in vivo, human
Settings: for Vd / clearance / half-life: iv
Experimental: Dexlansoprazole injection (30 mg per vial) used in the PK and PD study was manufactured by Nanjing Yoko Pharma Co., Ltd. (Nanjing, China). Subjects received an intravenous infusion of 20 or 30 mg dexlansoprazole injection in sterile saline solution (100 mL/h, 60 min). The study drug was administrated with an infusing pump (SA213, Lifepum, Beijing, China) and given through an intravenous catheter in the antecubital vein opposite to the one from which blood samples were taken.
To determine the pharmacokinetic properties of dexlansoprazole injection in human, a series of venous blood samples (5 mL) were collected in heparinized tubes at 0 (pre-dose), 10, 20, 40, 60, and 75 min, 1.5, 2, 2.5, 3, 4, 6, 9, 12, 16, 24, and 36 h post-dose. Samples were centrifuged immediately at 4°C for 10 min at 3,500 revolutions per minute, then separated and stored at −80°C for PK analysis.
A chiral liquid chromatography-mass spectrometry method was developed and validated for the simultaneous determination of (R)- and (S)-lansoprazole in human plasma, with the calibration curve of 500–3,000 ng/mL for both (R)- and (S)-lansoprazole (Sun et al., [2015]). […] The mass spectrometric analysis was performed using a QTrap 5500 mass spectrometer (AB Sciex, Concord, Ontario, Canada).
The PK parameter of Cmax (maximum concentration) and Tmax (the time to Cmax) were obtained directly from the observed data. Other PK parameters including t1/2 (elimination half-life), AUC^PK (area under the plasma concentration-time curve), Vd (volume of distribution), and CL (clearance) were calculated using non-compartmental methods with Phoenix WinNonlin version 6.4 (Pharsight Inc., CA, USA).

[1] = human, plasma, 20 mg, 20 mg iv, CYP2C19 PM (n = 6)
[2] = human, plasma, 20 mg, 20 mg iv, CYP2C19 hetEM (n = 9)
[3] = human, plasma, 20 mg, 20 mg iv, CYP2C19 homEM (n = 8)
[4] = human, plasma, 20 mg, 20 mg iv, Total (n = 23)
[5] = human, plasma, 30 mg, 30 mg iv, CYP2C19 PM (n = 7)
[6] = human, plasma, 30 mg, 30 mg iv, CYP2C19 hetEM (n = 10)
[7] = human, plasma, 30 mg, 30 mg iv, CYP2C19 homEM (n = 11)
[8] = human, plasma, 30 mg, 30 mg iv, Total (n = 28)
[9] = human, plasma, 20 mg iv, CYP2C19 PM (n = 6)

Cc1c(OCC(F)(F)F)ccnc1C[S@@+]([O-])c1nc2ccccc2[nH]1 [dexlansoprazole]
dose proportionality of Cmax and AUC^PK (20 vs 30 mg iv): exhibit dose proportionality | differences in PK parameters among ABCB1 genotypes (ABCB1 C3435T CC, CT, TT): no statistical significant differences | Vd [1]: 11 L | clearance [1]: 34.7 mL/min | half-life [1]: 3.65 h | Vd [2]: 8.78 ± 1.35 L | clearance [2]: 76.7 mL/min | half-life [2]: 1.37 ± 0.24 h | Vd [3]: 10.4 ± 1.07 L | clearance [3]: 113 mL/min | half-life [3]: 1.18 ± 0.4 h | Vd [4]: 9.62 ± 1.45 L | clearance [4]: 90.2 mL/min | half-life [4]: 1.41 ± 0.64 h | Vd [5]: 9.58 ± 1.56 L | clearance [5]: 40.2 mL/min | half-life [5]: 3.96 ± 1.54 h | Vd [6]: 8.2 ± 1.73 L | clearance [6]: 61.5 mL/min | half-life [6]: 1.56 ± 0.15 h | Vd [7]: 10.7 ± 1.23 L | clearance [7]: 115 mL/min | half-life [7]: 1.14 ± 0.28 h | Vd [8]: 9.78 ± 1.69 L | clearance [8]: 78.2 mL/min | half-life [8]: 2.17 ± 1.57 h | AUC(0-inf) [9]: 9600 ng·h/mL | Cmax [9]: 1670 ng/mL | AUC (human, plasma, 20 mg iv, CYP2C19 PM (n = 6), read-out: AUC0-tCon-t): 9490 ng·h/mL | Tmax (human, plasma, 20 mg iv, CYP2C19 homEM (n = 8)): 1 h | Tmax (human, plasma, 30 mg iv, Total (n = 28)): 1 h | AUC^PK for CYP2C19 PMs relative to CYP2C19 homEMs (same dose group): 3- to 4 fold | t1/2 for CYP2C19 PMs relative to CYP2C19 homEMs (same dose group): 3- to 4 fold
